From paper PMC4260745, “Modulation of A1 and A2B adenosine receptor activity: a new strategy to sensitise glioblastoma stem cells to chemotherapy” (Cell Death & Disease, 2014) come the findings set out here.

Molecules are shown by their SMILES.

The assay has as its target T1, A2BAR (A2B adenosine receptor) (Homo sapiens, UniProt P29275).
T1 construct: gene ADORA2B
T1 sequence (P29275 1-332): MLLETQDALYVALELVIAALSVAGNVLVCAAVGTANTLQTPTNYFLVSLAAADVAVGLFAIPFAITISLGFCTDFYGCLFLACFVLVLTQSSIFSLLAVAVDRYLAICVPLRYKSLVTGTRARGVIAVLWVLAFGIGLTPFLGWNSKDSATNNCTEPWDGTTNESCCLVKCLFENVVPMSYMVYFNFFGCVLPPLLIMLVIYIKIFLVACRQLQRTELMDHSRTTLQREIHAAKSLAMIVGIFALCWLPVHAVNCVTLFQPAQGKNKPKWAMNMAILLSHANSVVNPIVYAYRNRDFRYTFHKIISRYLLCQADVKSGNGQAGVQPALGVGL
As to the kind of experiment: […]GTPγS binding, membranes of U343MG-derived CSCs (endogenous receptor). The format is biochemical.

Regarding `N#Cc1c(N)nc(SCC(N)=O)c(C#N)c1-c1ccc(OCC2CC2)cc1` [BAY606583, 2-[6-Amino-3,5-dicyano-4-[4-(cyclopropylmethoxy)-phenyl]pyridin-2-ylsulfanyl]acetamide], the response was half-maximal at 1.9 ± 0.2 nM (EC50).
